# Laboratory results as given in patent US20200140446A1, “5,8-DIMETHYL-2-[2-(1-METHYL-4-PHENYL-1H-IMIDAZOL-2-YL)-ETHYL]-[1,2,4]TRIAZOLO[1,5-A]PYRAZINE HEMIADIPATE” (H. Lundbeck A/S, priority 2018, published 2020).
# Marks after values point to notes of the source that are not given here.
# Assays:
# [1] = Hydrate formation (precipitation from water / storage at 95% RH, XRPD); assay type: physicochemical; details: for Hydrate formation (Yes/No): summary of solid forms of Compound (I), Table 2
# Excerpt: To determine whether the Compound (I) hemiadipate are prone to form hydrates it was investigated if precipitation from water equilibrated over 7 days led to a new crystal form. In addition, it was explored if storage of Compound (I) hemiadipate at 95% RH for 5 months led to change in the crystal form.
# [2] = Dynamic Vapour Sorption (DVS), hygroscopicity; assay type: physicochemical; details: for Hygroscopic (Yes/No): summary of solid forms of Compound (I), Table 2; for hygroscopicity (DVS conclusion): RH 0% to 95%, 25° C.
# Excerpt: The vapour sorption can be investigated by DVS analysis.
# The vapour sorption was investigated by DVS analysis.
# [3] = Intrinsic Dissolution Rate (IDR); assay type: physicochemical; details: 37° C., 10 mg tablet, duplicates
# Procedure: Tablets of 10 mg Compound (I) (free base or hemiadipate) were pressed and put into a micro dissolution chamber. It was subsequently measured how fast the substance was dissolved from the well-defined surface of the tablet into the solvent. The length of a full dissolution experiment was 20 min and the IDR was calculated in the range 1-2.5 min, determined as the slope of the dissolution profile in that specific range. The experiment at pH 2 was performed in 0.01 N HCl, at pH 5 in 50 mM acetate buffer and at pH 6.8 in 50 mM phosphate buffer, respectively, all at 37° C. All experiments were performed in duplicates.
# Where the tablet was not fully dissolved after end of experiment, the surface was examined by XRPD, to identify if any changes of solid form have occurred during the experiment.
# [4] = Solvate formation (shake-flask precipitation in organic solvents, XRPD); assay type: physicochemical; details: 16 organic solvents, equilibration for 4 days
# Excerpt: To determine whether the Compound (I) hemiadipate forms solvates it was investigated if solvate formation could be observed from precipitation in different organic solvents after equilibration for 4 days in the shake-flask method: Compound (I) hemiadipate was precipitated in various organic solvents from a 1:1 mixture of Compound (I) and adipic acid. The tested solvents were: acetone, acetonitrile, methanol, ethanol, 1-propanol, 2-propanol, 1-butanol, 2-butanol, ethyl acetate, isopropyl acetate, methyl isobutyl ketone, tetrahydrofuran, diethylether, N-methylpyrrolidone, dichloromethane, and n-heptane.
# rats = experiment: Conditioned Avoidance Response (CAR) in rats, high dopamine state; assay type: in vivo
# Excerpt: The inventors of the present invention put forward the hypothesis that many patients with exacerbated positive symptoms can be expected to have increased striatal dopamine levels. Since the dopamine receptors regulate the dopamine signal by controlling cAMP synthesis and PDE10A regulates the gain of this signal by controlling cAMP degradation, the effect of PDE10A inhibition might be altered in conditions with increased striatal dopamine tonus, such as found in patients with prominent positive symptoms. To investigate this further the effect of compounds of the invention were tested in the CAR assay in rats that were co-dosed with a low dose of d-amphetamine (0.20-0.25 mg/kg) to induce a high dopamine state (FIG. 4). […] Compound (I) was tested alone and in combination with a low dose d-amphetamine to induce a high dopamine state. The efficacy was measured as the mean number of avoidances and results are depicted as mean+/−SEM. […] Bars represent the following dose groups (left to right): 1) Vehicle; 2) d-amphetamine (0.2 mg/kg); 3) Compound (I) (0.6 mg/kg); 4) Compound (I) (0.3 mg/kg)+d-amphetamine (0.2 mg/kg); 5) Compound (I) (0.6 mg/kg)+d-amphetamine (0.2 mg/kg); and 6) Compound (I) (3.0 mg/kg)+d-amphetamine (0.2 mg/kg). ** p<0.01 compared to vehicle. ns=non-significant.
Molecule,Hydrate formation (Yes/No) [1],Hygroscopic (Yes/No) [2],further results
O=C(O)CCC(=O)C(=O)O [2-oxoglutarate],Yes,Yes,
"Cc1ncc(C)n2nc(CCc3nc(-c4ccccc4)cn3C)nc12 [Compound (I) hemiadipate, 5,8-Dimethyl-2-[2-(1-methyl-4-phenyl-1H-imidazol-2-yl)-ethyl]-[1,2,4]triazolo[1,5-a]pyrazine hemiadipate]",No,No,"IDR Average ([3]; pH 2, 0.01 N HCl): >2* mg/cm^2 × min; IDR Average ([3]; pH 5, 50 mM acetate buffer): 0.3 mg/cm^2 × min; IDR Average ([3]; pH 6.8, 50 mM phosphate buffer): 0.04 mg/cm^2 × min; solvate formation [4]: does not form solvates; change of crystal form after storage at 95% RH ([1]; 95% RH for 5 months, XRPD): had not changed from the original form; change of crystal form after precipitation from water ([1]; water, equilibrated over 7 days, XRPD): had not changed from the original form; vapour sorption ([2]; DVS, 95% RH at 25° C.): less than 0.1%; hygroscopicity (DVS conclusion) ([2]; DVS): non-hygroscopic"
"Cc1ncc(C)n2nc(CCc3nc(-c4ccccc4)cn3C)nc12 [Compound (I), 5,8-Dimethyl-2-[2-(1-methyl-4-phenyl-1H-imidazol-2-yl)-ethyl]-[1,2,4]triazolo[1,5-a]pyrazine]",,,"IDR Average ([3]; pH 2, 0.01 N HCl, listed as Compound (I) free base): 1.45 mg/cm^2 × min; IDR Average ([3]; pH 5, 50 mM acetate buffer, listed as Compound (I) free base): 0.101 mg/cm^2 × min; IDR Average ([3]; pH 6.8, 50 mM phosphate buffer, listed as Compound (I) free base): 0.025 mg/cm^2 × min; effect on CAR (mean number of avoidances), combined with d-amphetamine (rats; Compound (I) 0.3, 0.6, 3.0 mg/kg + d-amphetamine 0.2 mg/kg (high dopamine state)): this effect was abolished; effect on CAR (mean number of avoidances), dosed alone (rats; Compound (I) alone (0.6 mg/kg), ** p<0.01 compared to vehicle): reduced CAR; Hydrate formation (Yes/No) ([1]; listed as Free base): Yes; hygroscopicity (DVS conclusion) ([2]; DVS, listed as free base): very hygroscopic; Hygroscopic (Yes/No) ([2]; listed as Free base): Yes"
Cc1ncc(C)n2nc(CCc3nc(-c4ccccc4)cn3C)nc12.O=C[C@H](O)[C@@H](O)[C@H](O)[C@H](O)C(=O)O [D-glucoronate],Yes,Yes,
O=P(O)(O)O [Dihydrogen Phosphate],Yes,,
Br.Cc1ncc(C)n2nc(CCc3nc(-c4ccccc4)cn3C)nc12 [Hydrogen Bromide],Yes,Yes,
Cl [Hydrogen Chloride],Yes,Yes,
Cc1ncc(C)n2nc(CCc3nc(-c4ccccc4)cn3C)nc12.O=S(=O)(O)O [Hydrogen sulphate],Yes,,
Citrate,Yes,Yes,
Fumarate,Yes,,
Glutarate,Yes,,
L(+)-tartrate,Yes,,
L(−)-malate,Yes,Yes,
Maleate,Yes,Yes,
Malonate,Yes,Yes,
Oxalate,Yes,Yes,
Tosylate,Yes,Yes,
